Reference: ChEMBL document CHEMBL1139947, “Bridged androstenediol analogs as ER-beta selective SERMs” (Bioorg Med Chem Lett, 2007)

Tests used:
Estrogen receptor beta [1] = biological target: T1, Estrogen receptor beta (Homo sapiens, UniProt Q92731)
Description: Binding affinity to human recombinant ERbeta by scintillation proximity assay

Estrogen receptor [2] = biological target: T2, Estrogen receptor (Homo sapiens, UniProt P03372)
T2 sequence (P03372 whole entry): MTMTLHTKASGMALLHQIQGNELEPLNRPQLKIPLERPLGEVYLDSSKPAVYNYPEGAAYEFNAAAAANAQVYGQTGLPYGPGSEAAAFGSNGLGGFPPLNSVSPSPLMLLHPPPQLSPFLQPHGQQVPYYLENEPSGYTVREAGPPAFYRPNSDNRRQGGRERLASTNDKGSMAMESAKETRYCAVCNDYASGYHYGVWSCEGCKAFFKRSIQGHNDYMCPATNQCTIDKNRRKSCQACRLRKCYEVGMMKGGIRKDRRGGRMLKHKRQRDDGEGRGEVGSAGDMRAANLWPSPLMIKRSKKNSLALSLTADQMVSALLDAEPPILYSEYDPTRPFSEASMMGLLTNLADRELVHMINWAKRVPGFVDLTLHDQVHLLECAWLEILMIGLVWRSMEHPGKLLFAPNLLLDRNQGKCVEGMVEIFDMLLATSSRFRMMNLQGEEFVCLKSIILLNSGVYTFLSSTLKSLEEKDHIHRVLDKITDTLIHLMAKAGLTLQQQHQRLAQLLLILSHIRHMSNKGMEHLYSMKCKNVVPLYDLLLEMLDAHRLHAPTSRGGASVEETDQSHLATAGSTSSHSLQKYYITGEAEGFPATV
Description: Binding affinity to human recombinant ERalpha by scintillation proximity assay

Androgen receptor = biological target: T3, Androgen receptor (Homo sapiens, UniProt P10275)
T3 sequence (P10275 whole entry): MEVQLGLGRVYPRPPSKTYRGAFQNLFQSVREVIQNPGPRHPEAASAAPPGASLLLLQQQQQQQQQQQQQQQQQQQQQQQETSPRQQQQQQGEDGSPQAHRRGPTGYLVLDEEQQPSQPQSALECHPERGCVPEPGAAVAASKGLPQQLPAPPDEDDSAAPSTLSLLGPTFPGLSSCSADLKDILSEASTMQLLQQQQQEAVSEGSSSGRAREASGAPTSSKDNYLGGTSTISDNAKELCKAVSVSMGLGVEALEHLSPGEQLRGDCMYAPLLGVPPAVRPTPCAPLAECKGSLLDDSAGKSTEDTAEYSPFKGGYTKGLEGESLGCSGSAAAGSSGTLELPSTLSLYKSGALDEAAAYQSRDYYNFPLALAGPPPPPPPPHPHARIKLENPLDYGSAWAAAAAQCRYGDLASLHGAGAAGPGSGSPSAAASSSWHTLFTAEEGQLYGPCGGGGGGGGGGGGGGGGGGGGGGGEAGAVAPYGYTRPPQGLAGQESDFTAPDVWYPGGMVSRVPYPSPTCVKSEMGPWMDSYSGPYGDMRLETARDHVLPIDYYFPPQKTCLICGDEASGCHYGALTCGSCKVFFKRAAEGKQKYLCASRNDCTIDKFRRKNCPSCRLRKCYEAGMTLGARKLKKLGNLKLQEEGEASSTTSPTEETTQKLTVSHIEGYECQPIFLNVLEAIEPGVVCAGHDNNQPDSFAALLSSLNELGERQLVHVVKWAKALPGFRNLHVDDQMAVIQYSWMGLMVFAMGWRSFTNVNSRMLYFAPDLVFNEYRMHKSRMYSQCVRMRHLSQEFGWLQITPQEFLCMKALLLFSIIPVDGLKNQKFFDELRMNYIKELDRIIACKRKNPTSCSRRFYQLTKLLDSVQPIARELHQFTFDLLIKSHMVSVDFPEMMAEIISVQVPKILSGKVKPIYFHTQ
Description: Binding affinity to androgen receptor

Estrogen receptor [3] = biological target: T2, Estrogen receptor; remark: listed apart in the source
Description: Agonist activity at human recombinant ERalpha expressed in HEK293 cells by transactivation assay

Estrogen receptor beta [4] = biological target: T1, Estrogen receptor beta; remark: listed apart in the source
Description: Agonist activity at human recombinant ERbeta expressed in HEK293 cells by transactivation assay

T1 sequence (Q92731 whole entry): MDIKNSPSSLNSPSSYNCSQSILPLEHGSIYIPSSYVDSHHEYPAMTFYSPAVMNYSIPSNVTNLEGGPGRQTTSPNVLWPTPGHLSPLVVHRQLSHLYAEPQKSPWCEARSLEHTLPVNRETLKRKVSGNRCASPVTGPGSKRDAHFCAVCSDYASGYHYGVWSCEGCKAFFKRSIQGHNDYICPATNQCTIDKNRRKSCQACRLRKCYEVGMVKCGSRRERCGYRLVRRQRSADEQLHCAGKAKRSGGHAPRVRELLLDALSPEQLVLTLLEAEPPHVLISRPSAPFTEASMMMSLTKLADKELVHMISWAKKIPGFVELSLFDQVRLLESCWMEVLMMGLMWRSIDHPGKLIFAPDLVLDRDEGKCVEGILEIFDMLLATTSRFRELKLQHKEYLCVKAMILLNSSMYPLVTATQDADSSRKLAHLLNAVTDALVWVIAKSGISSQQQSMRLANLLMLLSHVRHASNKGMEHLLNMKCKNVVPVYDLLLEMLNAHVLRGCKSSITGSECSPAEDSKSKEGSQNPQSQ

With C[C@]12CC[C@H]3[C@@H](CC=C4[C@H]5CC[C@]43CC[C@@H]5O)[C@@H]1CC[C@@H]2O the IC50 (Estrogen receptor beta [1]) was 0.05 µM, the IC50 (Estrogen receptor [2]) was 0.317 µM and the IC50 (Androgen receptor) was 1.38 µM. The EC50 (Estrogen receptor [3]) was 0.044 µM and the EC50 (Estrogen receptor beta [4]) was 0.028 µM.

For C[C@]12CC[C@H]3[C@@H](CC=C4[C@H]5CC[C@]43CC[C@H]5O)[C@@H]1CC[C@@H]2O, the IC50 (Estrogen receptor beta [1]) was 0.854 µM, the IC50 (Estrogen receptor [2]) was 8.13 µM and the IC50 (Androgen receptor) was 1.12 µM. It also gave an EC50 (Estrogen receptor [3]) of 0.435 µM and an EC50 (Estrogen receptor beta [4]) of 0.198 µM.

In the case of C[C@]12CC[C@H]3[C@@H](CC=C4[C@@H]5C(=O)CC[C@@]43C[C@H]5O)[C@@H]1CC[C@@H]2O, the IC50 (Estrogen receptor beta [1]) is reported as > 10 µM, the IC50 (Estrogen receptor [2]) is reported as > 10 µM and the IC50 (Androgen receptor) is reported as > 1 µM. For the same compound, the EC50 (Estrogen receptor [3]) was > 1 µM and the EC50 (Estrogen receptor beta [4]) was > 1 µM.

With C[C@]12CC[C@H]3[C@@H](CC=C4[C@@H]5C(=O)CC[C@@]43C[C@@H]5O)[C@@H]1CC[C@@H]2O the IC50 (Estrogen receptor beta [1]) was > 10 µM, the IC50 (Estrogen receptor [2]) was > 10 µM and the IC50 (Androgen receptor) was > 1 µM. For the same compound, the EC50 (Estrogen receptor [3]) was > 1 µM and the EC50 (Estrogen receptor beta [4]) was > 1 µM.

C[C@]12CC[C@H]3[C@@H](CC=C4C[C@@H]5CC[C@@]43CC(=O)O5)[C@@H]1CC[C@@H]2O was tested, and the IC50 (Estrogen receptor beta [1]) was > 10 µM, the IC50 (Estrogen receptor [2]) was > 10 µM and the IC50 (Androgen receptor) was > 1 µM. For the same compound, the EC50 (Estrogen receptor [3]) was > 1 µM and the EC50 (Estrogen receptor beta [4]) was > 1 µM.

C=C[C@]12CC[C@H](O)CC1=CC[C@H]1[C@@H]3CC[C@H](O)[C@@]3(C)CC[C@@H]12 was tested, and the IC50 (Estrogen receptor [2]) was 2.24 µM, the EC50 (Estrogen receptor [3]) was 0.98 µM and the EC50 (Estrogen receptor beta [4]) was 0.004 µM.

C/C=C\[C@]12CC[C@H](O)CC1=CC[C@H]1[C@@H]3CC[C@H](O)[C@@]3(C)CC[C@@H]12 showed an IC50 (Estrogen receptor beta [1]) of 0.016 µM, an IC50 (Estrogen receptor [2]) of 1.96 µM and an IC50 (Androgen receptor) of 0.718 µM. The EC50 (Estrogen receptor [3]) was 0.344 µM and the EC50 (Estrogen receptor beta [4]) was 0.021 µM.

C=C[C@]12CCC(=O)C=C1CC[C@H]1[C@@H]3CC[C@H](O)[C@@]3(C)CC[C@@H]12 was tested, and the IC50 (Estrogen receptor [2]) was > 10 µM and the EC50 (Estrogen receptor [3]) was > 1 µM.

With C[C@]12CC[C@H]3[C@@H](CC=C4[C@H]5CC=C[C@]43CC[C@@H]5O)[C@@H]1CC[C@@H]2O the IC50 (Estrogen receptor beta [1]) was 0.157 µM, the IC50 (Estrogen receptor [2]) was 2.24 µM and the IC50 (Androgen receptor) was 0.085 µM. The EC50 (Estrogen receptor [3]) was 4.89 µM and the EC50 (Estrogen receptor beta [4]) was 0.132 µM.

With CC[C@]12CC[C@H](O)CC1=CC[C@@H]1[C@@H]2CC[C@]2(C)[C@@H](O)CC[C@@H]12 the IC50 (Estrogen receptor beta [1]) was 0.016 µM, the IC50 (Estrogen receptor [2]) was 2.33 µM and the IC50 (Androgen receptor) was 0.088 µM.

For C=CC[C@@H]1C2=CC[C@H]3[C@@H]4CC[C@H](O)[C@@]4(C)CC[C@@H]3[C@@]2(C=C)CC[C@@H]1O, the IC50 (Estrogen receptor beta [1]) was 3.02 µM, the IC50 (Estrogen receptor [2]) was > 10 µM and the IC50 (Androgen receptor) was 0.015 µM. The EC50 (Estrogen receptor [3]) was > 1 µM and the EC50 (Estrogen receptor beta [4]) was > 1 µM.

In the case of C[C@]12CC[C@H]3[C@@H](CC[C@H]4[C@H]5CCC[C@]43CC[C@@H]5O)[C@@H]1CC[C@@H]2O, the IC50 (Estrogen receptor beta [1]) is reported as 0.322 µM, the IC50 (Estrogen receptor [2]) is reported as 4.99 µM and the IC50 (Androgen receptor) is reported as 0.068 µM. For the same compound, the EC50 (Estrogen receptor [3]) was 1.3 µM and the EC50 (Estrogen receptor beta [4]) was 0.219 µM.

With C[C@]12CC[C@H]3[C@@H](CC=C4C[C@@H]5CC[C@@]43CCO5)[C@@H]1CC[C@@H]2O the IC50 (Estrogen receptor beta [1]) was > 10 µM, the IC50 (Estrogen receptor [2]) was > 10 µM and the IC50 (Androgen receptor) was 0.71 µM. The EC50 (Estrogen receptor [3]) was > 1 µM and the EC50 (Estrogen receptor beta [4]) was 0.44 µM.

C[C@]12CC[C@H]3[C@@H](CC=C4[C@H]5CC[C@]43CCC5=O)[C@@H]1CC[C@@H]2O was tested, and the IC50 (Estrogen receptor beta [1]) was 1.46 µM, the IC50 (Estrogen receptor [2]) was > 10 µM and the EC50 (Estrogen receptor [3]) was 0.407 µM. It also gave an EC50 (Estrogen receptor beta [4]) of 0.086 µM.

In the case of C[C@]12CC[C@H]3[C@@H](CC4C5=CC(=O)CC[C@@]53C[C@H]4O)[C@@H]1CC[C@@H]2O, the IC50 (Estrogen receptor beta [1]) is reported as > 10 µM, the IC50 (Estrogen receptor [2]) is reported as > 10 µM and the IC50 (Androgen receptor) is reported as > 1 µM. For the same compound, the EC50 (Estrogen receptor [3]) was > 1 µM and the EC50 (Estrogen receptor beta [4]) was > 1 µM.
